Measurements from US12065399B2, “Arylsulfonamide derivatives” (Hoffmann-La Roche Inc., priority 2019, dated 2024).

molecular target: human mGlu4 receptor (Homo sapiens (Human), UniProt Q14833); test: Intracellular Ca2+ mobilization assay (FLIPR), mGlu4 NAM; type: cell-based; settings: HEK-293 cells stably transfected with human mGlu4; inhibition of L-AP4 (EC80) response; IC50
Method: 2.1) Intracellular Ca^2+ Mobilization Assay (FLIPR)
A monoclonal HEK-293 cell line stably transfected with a cDNA encoding for the human mGlu4 receptor was generated. Cells were cultured according to standard protocols (Freshney, 2000) in Dulbecco's Modified Eagle Medium with high glucose supplemented with 1 mM glutamine, 10% (vol/vol) heat-inactivated bovine calf serum, penicillin/streptomycin, 50 μg/ml hygromycin and 15 μg/ml blasticidin (all cell culture reagents and antibiotics from Invitrogen, Basel, Switzerland).
About 24 hrs before an experiment, 5×10^4 cells/well were seeded in poly-D-lysine coated, black/clear-bottomed 96-well plates. The cells were loaded with 2.5 μM Fluo-4AM in loading buffer (1×HBSS, 20 mM HEPES) for 1 hr at 37° C. and washed five times with loading buffer. The cells were transferred into a Functional Drug Screening System 7000 (Hamamatsu, Paris, France), and 11 half logarithmic serial dilutions of test compound at 37° C. were added and the cells were incubated for 10-30 min. with on-line recording of fluorescence. Following this pre-incubation step, the agonist (2S)-2-amino-4-phosphonobutanoic acid (L-AP4) was added to the cells at a concentration corresponding to EC80 with on-line recording of fluorescence; in order to account for day-to-day variations in the responsiveness of cells, the EC80 of L-AP4 was determined immediately ahead of each experiment by recording of a full dose-response curve of L-AP4.
Responses were measured as peak increase in fluorescence minus basal (i.e. fluorescence without addition of L-AP4), normalized to the maximal stimulatory effect obtained with saturating concentrations of L-AP4. Graphs were plotted with the % maximal stimulatory using XLfit, a curve fitting program that iteratively plots the data using Levenburg Marquardt algorithm. The single site competition analysis equation used was y=A+((B-A)/(1+((x/C)D))), where y is the % maximal stimulatory effect, A is the minimum y, B is the maximum y, C is the IC50, x is the log 10 of the concentration of the competing compound and D is the slope of the curve (the Hill Coefficient). From these curves the IC50 (drug concentration at which 50% of the receptor activation achieved from the addition of L-AP4 in the experiment was inhibited), the Hill coefficient as well as the maximal response in % of the maximal stimulatory effect obtained with saturating concentrations of L-AP4 were calculated (see FIG. 1).

Chain of human mGlu4 receptor (Q14833 33-912): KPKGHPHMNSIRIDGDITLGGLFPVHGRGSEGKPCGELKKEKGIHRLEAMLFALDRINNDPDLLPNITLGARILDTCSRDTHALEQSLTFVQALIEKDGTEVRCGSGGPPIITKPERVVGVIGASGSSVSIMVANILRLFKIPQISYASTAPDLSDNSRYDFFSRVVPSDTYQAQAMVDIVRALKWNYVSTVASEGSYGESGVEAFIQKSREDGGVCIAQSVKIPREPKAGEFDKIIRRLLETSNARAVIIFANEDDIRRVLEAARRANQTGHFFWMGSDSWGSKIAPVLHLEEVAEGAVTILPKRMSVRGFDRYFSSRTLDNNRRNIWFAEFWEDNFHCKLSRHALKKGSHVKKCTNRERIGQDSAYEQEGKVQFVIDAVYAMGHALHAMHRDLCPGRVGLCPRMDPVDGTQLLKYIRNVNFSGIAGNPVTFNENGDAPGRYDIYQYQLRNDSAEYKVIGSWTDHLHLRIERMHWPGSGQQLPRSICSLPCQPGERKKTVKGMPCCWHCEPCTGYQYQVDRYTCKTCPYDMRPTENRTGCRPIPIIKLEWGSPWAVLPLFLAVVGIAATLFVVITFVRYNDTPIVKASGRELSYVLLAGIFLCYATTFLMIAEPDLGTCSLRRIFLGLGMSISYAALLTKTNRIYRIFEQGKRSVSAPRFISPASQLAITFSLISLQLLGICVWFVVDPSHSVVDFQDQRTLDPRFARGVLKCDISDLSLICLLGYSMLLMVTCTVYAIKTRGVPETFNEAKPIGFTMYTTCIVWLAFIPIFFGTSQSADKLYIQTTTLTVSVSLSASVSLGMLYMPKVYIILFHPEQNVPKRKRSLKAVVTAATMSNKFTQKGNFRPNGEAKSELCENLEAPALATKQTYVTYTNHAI

`O=S(=O)(Nc1c(F)cc(C#Cc2ccccc2)cc1F)c1ccccc1Cl` [Example 1, 2-chloro-N-[2,6-difluoro-4-(2-phenylethynyl)phenyl]benzenesulfonamide] and `Cc1ccccc1S(=O)(=O)Nc1c(F)cc(C#Cc2ccccc2)cc1F` [Example 5, N-[2,6-difluoro-4-(2-phenylethynyl)phenyl]-2-methyl-benzenesulfonamide] are within 1.5-fold of each other in EC50: 4.28 µM for the first, 3.71 µM for the second.

`O=S(=O)(Nc1c(F)cc(C#Cc2ccccc2)cc1F)c1cccc(Cl)c1Cl` [Example 2, 2,3-dichloro-N-[2,6-difluoro-4-(2-phenylethynyl)phenyl]benzenesulfonamide] and `Cc1cccc(S(=O)(=O)Nc2c(F)cc(C#Cc3ccccc3)cc2F)c1Cl` [Example 16, 2-chloro-N-[2,6-difluoro-4-(2-phenylethynyl)phenyl]-3-methyl-benzenesulfonamide] are within 1.5-fold of each other in EC50: 1.68 µM for the first, 1.56 µM for the second.

Compared with `O=S(=O)(Nc1c(F)cc(C#Cc2ccccc2)cc1F)c1ccccc1C(F)(F)F` [Example 3, N-[2,6-difluoro-4-(2-phenylethynyl)phenyl]-2-(trifluoromethyl)benzenesulfonamide], `O=S(=O)(Nc1c(F)cc(C#Cc2ccccc2)cc1F)c1ccccc1F` [Example 6, N-[2,6-difluoro-4-(2-phenylethynyl)phenyl]-2-fluoro-benzenesulfonamide] is 1.7-fold higher in EC50: 2.81 µM for the first, 4.64 µM for the second. The first is the more potent here.

Compared with `O=S(=O)(Nc1c(F)cc(C#Cc2ccccc2)cc1F)c1cc(Cl)ccc1Cl` [Example 4, 2,5-dichloro-N-[2,6-difluoro-4-(2-phenylethynyl)phenyl]benzenesulfonamide], `O=S(=O)(Nc1c(F)cc(C#Cc2ccccc2)cc1F)c1ccc(Cl)cc1Cl` [Example 11, 2,4-dichloro-N-[2,6-difluoro-4-(2-phenylethynyl)phenyl]benzenesulfonamide] is 4.6-fold higher in EC50: 3.43 µM for the first, 15.7 µM for the second.

`O=S(=O)(Nc1c(F)cc(C#Cc2ccccc2)cc1F)c1cccnc1` [Example 7, N-[2,6-difluoro-4-(2-phenylethynyl)phenyl]pyridine-3-sulfonamide] and `O=S(=O)(Nc1c(F)cc(C#Cc2ccccc2)cc1F)c1cccc(Cl)c1` [Example 8, 3-chloro-N-[2,6-difluoro-4-(2-phenylethynyl)phenyl]benzenesulfonamide] are within 1.5-fold of each other in EC50: 4.67 µM for the first, 5.92 µM for the second.

First: O=S(=O)(Nc1c(F)cc(C#Cc2cccnc2)cc1F)c1ccccc1Cl [Example 9, 2-chloro-N-[2,6-difluoro-4-[2-(3-pyridyl)ethynyl]phenyl]benzenesulfonamide]
Second: O=S(=O)(Nc1c(F)cc(C#Cc2cncc(F)c2)cc1F)c1ccccc1Cl [Example 12, 2-chloro-N-[2,6-difluoro-4-[2-(5-fluoro-3-pyridyl)ethynyl]phenyl]benzenesulfonamide]
The EC50 of the first is 4.8-fold higher: 14.2 µM for the first, 2.96 µM for the second. The second is the more potent here.

First: O=S(=O)(Nc1c(F)cc(C#Cc2ccccc2)cc1F)c1ccccn1 [Example 10, N-[2,6-difluoro-4-(2-phenylethynyl)phenyl]pyridine-2-sulfonamide]
Second: O=S(=O)(Nc1c(F)cc(C#Cc2ccccc2)cc1F)c1cccc(F)c1Cl [Example 17, 2-chloro-N-[2,6-difluoro-4-(2-phenylethynyl)phenyl]-3-fluoro-benzenesulfonamide]
The EC50 of the first is 19-fold higher: 14.3 µM for the first, 0.734 µM for the second. The second is the more potent here.

`O=S(=O)(Nc1c(F)cc(C#Cc2cncc(F)c2)cc1F)c1cccc(Cl)c1Cl` [Example 13, 2,3-dichloro-N-[2,6-difluoro-4-[2-(5-fluoro-3-pyridyl)ethynyl]phenyl]benzenesulfonamide] and `COc1c(Cl)cccc1S(=O)(=O)Nc1c(F)cc(C#Cc2cncc(F)c2)cc1F` [Example 15, 3-chloro-N-[2,6-difluoro-4-[2-(5-fluoro-3-pyridyl)ethynyl]phenyl]-2-methoxy-benzenesulfonamide] are within 1.5-fold of each other in EC50: 0.556 µM for the first, 0.778 µM for the second.

Work on `O=S(=O)(Nc1c(F)cc(C#Cc2cncc(F)c2)cc1F)c1cccc(Cl)c1` [Example 14, 3-chloro-N-[2,6-difluoro-4-[2-(5-fluoro-3-pyridyl)ethynyl]phenyl]benzenesulfonamide] yielded an EC50 of 1.05 µM.
